In patent publication US6355799B1, “Substituted benzene compounds, process for their preparation, and herbicidal and defoliant compositions containing them” (ISK Americas Incorporated, priority 1997, dated 2002):

Legend:
Type in all cases: in vivo
[1] = tested on: sicklepod (Cassia obtusifolia, CASOB); experiment: Pre-emerge test, greenhouse herbicide activity screening; details: pre-emerge, 14 days after application, scale 0-100
Text: (§1) A standard greenhouse herbicide activity screening system was used to evaluate the herbicidal efficacy and crop safety of these test compounds. Seven broadleaf weed species including redroot pigweed (Amaranthus retroflexus, AMARE, velvetleaf (Abutilon theophrasti, ABUTH), sicklepod (Cassia obtusifolia, CASOB), ivyleaf morningglory (Ipomoea hederacea, IPOHE), lambsquarters (Chenopodium album, CHEAL), common ragweed (Ambrosia artemisizfolia L., AMBEL), and cocklebur (Xanthium strumarium, XANST) were used as test species. Four grass weed species including green foxtail (Setaria viridis, SETVI), barnyardgrass (Echinochloa crus-galli, ECHCG), johnsongrass (Sorghum halepense, SORHA), and large crabgrass (Digitaria sanguinalis, DIGSA) were also used. In addition, three crop species, field corn (Zea mays L., var. Dekalb 535, CORN), soybean (Glycine max L., var. Pella 86, SOY), and is upland rice (Oryza sp., var. Tebonnet, RICE) were included.
(§2) All plants were grown in 10 cm square plastic pots which were filled with a sandy loam soil mix. For pre-emerge tests, seeds were planted one day prior to application of the test compounds. For post-emerge tests, seeds were planted 8-21 days prior to the test to allow emergence and good foliage development prior to application of the test substances. At the time of the post-emerge application, plants of all species were usually at the 2-3 leaf stage of development.
(§3) All test compounds Were dissolved in acetone and applied to the test units in a volume of 187 l /ha. Test materials were applied at rates ranging from 15 g ai/ha to 1000 g ai/ha using a track sprayer equipped with a TJ8001E even flow flat fan spray nozzle. Plants were arranged on a shelf so that the top of the canopy (post-emerge) or top of the soil surface (pre-emerge) was 40-45 cm below the nozzle. Pressurized air was used to force the test solution through the nozzle as it was mechanically advanced (via electrically driven chain drive) over the top of all test plants/pots. This application simulates a typical commercial field herbicide application.
(§4) In the post-emerge test, a commercial non-ionic surfactant was also included (0.25% v/v) to enhance wetting of the leaf surfaces of target plants. Immediately after application, test units of the pre-emerge applications were watered at the soil surface to incorporate the test materials. Subsequently, these test units were bottom-watered. Post-emerge test units were always bottom-watered.
(§5) At 14 days after application of the test materials, phytotoxicity ratings were recorded. A rating scale of 0-100 was used as previously described in Research Methods in Weed Science, 2nd edition, B. Truelove, Ed., Southern Weed Science Society, Auburn University, Auburn, Ala. 1977. Briefly, “0” corresponds to no damage and “100” corresponds to complete death of all plants in the test unit. This scale was used both to determine efficacy against weed species and damage to crop species. Herbicide activity data for various compounds of this invention, which are shown by compound No. in Tables 1-8, are shown in Tables 11 and 12.

[2] = tested on: lambsquarters (Chenopodium album, CHEAL); experiment: as above; details: pre-emerge, 14 days after application, scale 0-100
Text: as §1, §2, §3, §4, §5

[3] = tested on: large crabgrass (Digitaria sanguinalis, DIGSA); experiment: as above; details: pre-emerge, 14 days after application, scale 0-100
Text: as §1, §2, §3, §4, §5

[4] = tested on: ivyleaf morningglory (Ipomoea hederacea, IPOHE); experiment: as above; details: pre-emerge, 14 days after application, scale 0-100
Text: as §1, §2, §3, §4, §5

[5] = tested on: green foxtail (Setaria viridis, SETVI); experiment: as above; details: pre-emerge, 14 days after application, scale 0-100
Text: as §1, §2, §3, §4, §5

[6] = tested on: barnyardgrass (Echinochloa crus-galli, ECHCG); experiment: as above; details: pre-emerge, 14 days after application, scale 0-100
Text: as §1, §2, §3, §4, §5

[7] = tested on: velvetleaf (Abutilon theophrasti, ABUTH); experiment: as above; details: pre-emerge, 14 days after application, scale 0-100
Text: as §1, §2, §3, §4, §5

[8] = tested on: redroot pigweed (Amaranthus retroflexus, AMARE); experiment: as above; details: pre-emerge, 14 days after application, scale 0-100
Text: as §1, §2
as §3, with “Test materials were applied at rates ranging from 15 g ai/ha to 1000 g ai/ha using a track sprayer equipped with a TJ8001E even flow flat fan spray nozzle.” left out
as §4, §5

[9] = tested on: sicklepod (Cassia obtusifolia, CASOB); experiment: Post-emerge test, greenhouse herbicide activity screening; details: post-emerge, 14 days after application, rating scale 0-100
Text: as §1, §2, §3, §4, §5

[10] = tested on: redroot pigweed (Amaranthus retroflexus, AMARE); experiment: as above; details: post-emerge, 14 days after application, rating scale 0-100
Text: as §1, §2, §3, §4, §5

[11] = tested on: lambsquarters (Chenopodium album, CHEAL); experiment: as above; details: post-emerge, 14 days after application, rating scale 0-100
Text: as §1, §2, §3, §4, §5

[12] = tested on: large crabgrass (Digitaria sanguinalis, DIGSA); experiment: as above; details: post-emerge, 14 days after application, rating scale 0-100
Text: as §1, §2, §3, §4, §5

[13] = tested on: ivyleaf morningglory (Ipomoea hederacea, IPOHE); experiment: as above; details: post-emerge, 14 days after application, rating scale 0-100
Text: as §1, §2, §3, §4, §5

[14] = tested on: green foxtail (Setaria viridis, SETVI); experiment: as above; details: post-emerge, 14 days after application, rating scale 0-100
Text: as §1, §2, §3, §4, §5

[15] = tested on: barnyardgrass (Echinochloa crus-galli, ECHCG); experiment: as above; details: post-emerge, 14 days after application, rating scale 0-100
Text: as §1, §2, §3, §4, §5

[16] = tested on: velvetleaf (Abutilon theophrasti, ABUTH); experiment: as above; details: post-emerge, 14 days after application, rating scale 0-100
Text: as §1, §2, §3, §4, §5

SMILES: Cn1c(C(F)(F)F)cc(=O)n(-c2ccc(Cl)cc2NC(=O)c2ccc3ccccc3c2)c1=O [Compound 2-131, 3-[4-chloro-2-(2-naphthoylamino)phenyl]-1-methyl-6-trifluoromethyl-2,4(1H, 3H)-pyrimidinedione]
- phytotoxicity rating CASOB ([1]; 63 g ai/ha): 60
- phytotoxicity rating CASOB ([1]; 250 g ai/ha): 95
- phytotoxicity rating CHEAL ([2]; 63 g ai/ha): 90
- phytotoxicity rating CHEAL ([2]; 250 g ai/ha): 100
- phytotoxicity rating DIGSA ([3]; 63 g ai/ha): 40
- phytotoxicity rating DIGSA ([3]; 250 g ai/ha): 80
- phytotoxicity rating IPOHE ([4]; 63 g ai/ha): 30
- phytotoxicity rating IPOHE ([4]; 250 g ai/ha): 85
- phytotoxicity rating SETVI ([5]; 63 g ai/ha): 40
- phytotoxicity rating SETVI ([5]; 250 g ai/ha): 90
- phytotoxicity rating ECHCG ([6]; 63 g ai/ha): 10
- phytotoxicity rating ECHCG ([6]; 250 g ai/ha): 60
- phytotoxicity rating ABUTH ([7]; 63 g ai/ha): 85
- phytotoxicity rating ABUTH ([7]; 250 g ai/ha): 100
- phytotoxicity rating AMARE ([8]; 63 g ai/ha): 90
- phytotoxicity rating AMARE ([8]; 250 g ai/ha): 95
- CASOB phytotoxicity rating ([9]; 63 g ai/ha): 80
- CASOB phytotoxicity rating ([9]; 250 g ai/ha): 100
- AMARE phytotoxicity rating ([10]; 63 g ai/ha): 100
- AMARE phytotoxicity rating ([10]; 250 g ai/ha): 100
- CHEAL phytotoxicity rating ([11]; 63 g ai/ha): 100
- CHEAL phytotoxicity rating ([11]; 250 g ai/ha): 100
- DIGSA phytotoxicity rating ([12]; 63 g ai/ha): 30
- DIGSA phytotoxicity rating ([12]; 250 g ai/ha): 70
- IPOHE phytotoxicity rating ([13]; 63 g ai/ha): 100
- IPOHE phytotoxicity rating ([13]; 250 g ai/ha): 100
- SETVI phytotoxicity rating ([14]; 63 g ai/ha): 70
- SETVI phytotoxicity rating ([14]; 250 g ai/ha): 90
- ECHCG phytotoxicity rating ([15]; 63 g ai/ha): 30
- ECHCG phytotoxicity rating ([15]; 250 g ai/ha): 60
- ABUTH phytotoxicity rating ([16]; 63 g ai/ha): 100
- ABUTH phytotoxicity rating ([16]; 250 g ai/ha): 100
